How the values were obtained:
[1] = target: T1, EGFR L858R/T790M/C797S (BaF3-LTC cells) (Homo sapiens, UniProt P00533, C797S/L858R/T790M); test: EGFR degradation HTRF assay, BaF3-LTC cells; format: cell-based; conditions: BaF3-LTC cells; for DC50: EGFR degradation, IC50 (DC50) from curve fit, read-out: DC50(nM) BaF3-LTC; for Dmax: maximum percentage of inhibition (degradation), read-out: Dmax (%) BaF3-LTC
T1 construct: expressed in transfected cells; host or cells: BaF3
Outline: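 Cells treated 16 h at 37 °C, 5% CO2 in medium with 0.2% DMSO; top final concentration 10 uM, 5-fold dilution, 8 doses. Lysates read by HTRF (665/620 nm); degradation % versus DMSO high control, DC50 from four-parameter fit, Dmax as maximal degradation.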

[2] = test system: EGFR Del19/T790M/C797S (H1975-clone #28); test: EGFR degradation HTRF assay, H1975-clone #28 DTC cells; format: cell-based; conditions: H1975 # 28 DTC cells; for DC50: EGFR degradation, IC50 (DC50) from curve fit, read-out: DC50(nM) H1975 # 28 DTC; for Dmax (%) H1975 # 28 DTC: maximum percentage of inhibition (degradation)
Outline: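 H1975 clones stably overexpressing mutant EGFR, with endogenous EGFR knocked out by sgRNA and homozygosity confirmed by sequencing, were treated 16h at 37° C. with compounds in 0.2% DMSO (top final 10 uM, 5-fold, 8 doses). Lysates were read by HTRF (665/620 nm); DC50 and Dmax came from fitting % degradation versus DMSO control.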

T1 sequence (P00533 25-1210 T790M/C797S/L858R): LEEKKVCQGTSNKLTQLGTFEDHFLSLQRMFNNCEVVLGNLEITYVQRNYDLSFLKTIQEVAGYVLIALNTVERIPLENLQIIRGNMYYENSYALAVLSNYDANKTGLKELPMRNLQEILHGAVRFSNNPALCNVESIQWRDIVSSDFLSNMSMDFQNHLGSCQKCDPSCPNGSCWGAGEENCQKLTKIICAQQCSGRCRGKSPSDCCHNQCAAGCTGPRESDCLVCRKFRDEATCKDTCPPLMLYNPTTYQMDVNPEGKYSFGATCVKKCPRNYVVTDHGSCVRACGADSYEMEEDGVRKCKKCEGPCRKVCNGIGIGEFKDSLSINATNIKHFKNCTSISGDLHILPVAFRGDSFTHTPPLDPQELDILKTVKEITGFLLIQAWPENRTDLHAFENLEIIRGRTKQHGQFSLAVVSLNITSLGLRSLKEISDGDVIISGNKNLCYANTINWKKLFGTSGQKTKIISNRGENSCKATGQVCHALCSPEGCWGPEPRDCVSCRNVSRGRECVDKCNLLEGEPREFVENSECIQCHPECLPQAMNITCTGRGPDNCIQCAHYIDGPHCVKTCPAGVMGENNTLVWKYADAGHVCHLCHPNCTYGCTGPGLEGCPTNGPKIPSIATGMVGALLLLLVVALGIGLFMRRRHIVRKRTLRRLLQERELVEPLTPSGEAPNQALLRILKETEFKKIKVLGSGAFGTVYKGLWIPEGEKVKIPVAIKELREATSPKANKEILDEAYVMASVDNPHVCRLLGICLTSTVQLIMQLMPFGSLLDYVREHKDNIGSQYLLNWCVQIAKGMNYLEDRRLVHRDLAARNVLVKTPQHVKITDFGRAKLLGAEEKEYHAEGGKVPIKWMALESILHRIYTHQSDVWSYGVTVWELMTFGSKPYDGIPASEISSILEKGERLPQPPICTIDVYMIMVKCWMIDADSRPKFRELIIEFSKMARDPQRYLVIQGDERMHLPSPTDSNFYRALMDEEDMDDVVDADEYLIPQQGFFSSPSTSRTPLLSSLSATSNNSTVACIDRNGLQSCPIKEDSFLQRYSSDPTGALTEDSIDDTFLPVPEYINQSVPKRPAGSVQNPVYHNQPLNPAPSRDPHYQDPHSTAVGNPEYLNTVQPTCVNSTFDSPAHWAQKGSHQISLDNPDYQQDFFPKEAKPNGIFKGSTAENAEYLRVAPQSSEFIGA

Row | DC50 [1] | Dmax [1] | DC50 [2] | SMILES | Dmax (%) H1975 # 28 DTC [2]
1 | 3.98 nM | 95.8% | 1.81 nM | CCc1ccc2c(P(C)(C)=O)c(Nc3nc(Nc4cc(CC)c(N5CCC(N6CCN(C(=O)C78CCC(Nc9cc(F)c([C@H]%10CCC(=O)NC%10=O)c(F)c9)(CC7)C8)CC6)CC5)cc4OC)ncc3Br)ccc2n1 [Example 663, (R)-3-(4-((4-(4-(1-(4-((5-bromo-4-((5-(dimethylphosphoryl)-2-ethylquinolin-6-yl)amino)pyrimidin-2-yl)amino)-2-ethyl-5-methoxyphenyl)piperidin-4-yl)piperazine-1-carbonyl)bicyclo[2.2.1]heptan-1-yl)amino)-2,6-difluorophenyl)piperidine-2,6-dione] | 74.11%
2 | 1.49 nM | 97.9% | 0.543 nM | CCc1ccc2c(P(C)(C)=O)c(Nc3nc(Nc4cc(CC)c(N5CCC(N6CCN(C(=O)CN7CCN(c8cc(F)c([C@H]9CCC(=O)NC9=O)c(F)c8)CC7)CC6)CC5)cc4OC)ncc3Br)ccc2n1 [Example 665, (R)-3-(4-(4-(2-(4-(1-(4-((5-bromo-4-((5-(dimethylphosphoryl)-2-ethylquinolin-6-yl)amino)pyrimidin-2-yl)amino)-2-ethyl-5-methoxyphenyl)piperidin-4-yl)piperazin-1-yl)-2-oxoethyl)piperazin-1-yl)-2,6-difluorophenyl)piperidine-2,6-dione] | 85.47%
3 | 11.1 nM | 93.2% | 2.4 nM | CCc1cc(Nc2ncc(Br)c(Nc3ccc4nc(C)sc4c3P(C)(C)=O)n2)c(OC)cc1N1CCC(N2CCN(CCc3cc(F)c(C4CCC(=O)NC4=O)c(F)c3)CC2)CC1 (centres unmarked) [Example 666, 3-(4-(2-(4-(1-(4-((5-bromo-4-((7-(dimethylphosphoryl)-2-methylbenzo[d]thiazol-6-yl)amino)pyrimidin-2-yl)amino)-2-ethyl-5-methoxyphenyl)piperidin-4-yl)piperazin-1-yl)ethyl)-2,6-difluorophenyl)piperidine-2,6-dione] | 86.11%
4 | 13.3 nM | 84% | 3.69 nM | COc1cc(N2CCC3(CCN(C(=O)[C@@H]4CCN(c5cc(F)c([C@H]6CCC(=O)NC6=O)c(F)c5)C4)CC3)CC2)c(C)cc1Nc1ncc(Br)c(Nc2ccc3nccnc3c2P(C)(C)=O)n1 [Example 667, (R)-3-(4-((R)-3-(9-(4-((5-bromo-4-((5-(dimethylphosphoryl)quinoxalin-6-yl)amino)pyrimidin-2-yl)amino)-5-methoxy-2-methylphenyl)-3,9-diazaspiro[5.5]undecane-3-carbonyl)pyrrolidin-1-yl)-2,6-difluorophenyl)piperidine-2,6-dione] | 77.43%
5 | 2.32 nM | 91.5% | 0.579 nM | CCc1cc(Nc2ncc(Br)c(Nc3ccc4ncncc4c3P(C)(C)=O)n2)c(OC)cc1N1CCC(N2CCN(C(=O)[C@@H]3CCN(c4cc(F)c([C@H]5CCC(=O)NC5=O)c(F)c4)C3)CC2)CC1 [Example 668, (R)-3-(4-((R)-3-(4-(1-(4-((5-bromo-4-((5-(dimethylphosphoryl)quinazolin-6-yl)amino)pyrimidin-2-yl)amino)-2-ethyl-5-methoxyphenyl)piperidin-4-yl)piperazine-1-carbonyl)pyrrolidin-1-yl)-2,6-difluorophenyl)piperidine-2,6-dione] | 86.5%
